Assay results from patent US20230200390A1, “SELECTIVE HERBICIDES BASED ON SUBSTITUTED ISOXAZOLIN CARBOXAMIDES AND MEFENPYR-DIETHYL” (BAYER AKTIENGESELLSCHAFT, priority 2020, published 2023).

Columns and labels:
Type in all cases: in vivo
[1] = tested on: spring wheat, TRZAS Triso; test: Tank-mix; post-emergence: crop damage by herbicide with/without safener mefenpyr-diethyl
Description: (§1) Seeds of crops (spring wheat, TRZAS; spring barley, HORVS; maize, ZEAMA) were placed in sandy loam soil in peat pots, covered with soil and cultivated in a greenhouse under good growth conditions. Two to three weeks after sowing, the test plants were treated at the 1 to 3-leaf stage. The herbicide/safener active compound combinations according to the invention, formulated as wettable powders or emulsion concentrates, and, in parallel tests, the correspondingly formulated individual active compounds were sprayed onto the green parts of the plants in various dosages using an amount of water of 300 l/ha (converted).
(§2) The pots were returned under good growing conditions in a glasshouse and a visual assessment of herbicidal effects was made at intervals from 1 to 3 weeks after herbicide application (DAT=days after treatment). Assessment was on a percentage basis in comparison with untreated control plants (0%=no injury, 100%=complete kill).

[2] = tested on: spring barley, HORVS Montoya; test: as above
Description: as §1, §2

[3] = tested on: spring wheat, TRZAS Triso; test: Seed treatment with safener; post-emergence herbicide, crop damage; details: for HER effect + SAF [%] (crop damage) / Reduction [%] / Reduction [Difference]: mefenpyr-diethyl 0.5 g a.i./kg seed; for HER effect [%] (crop damage, herbicide without safener): no safener
Excerpt: (§3) For safener seed treatment trials, sufficient seed amounts of the respective crops (spring wheat (TRZAS); spring barley (HORVS)) were weighed into screw cap glass bottles with a minimum volume trice of the seeds.
(§4) As a first step, specified safeners formulated as wettable powder (WP) or wettable granules (WG) were weighed out for the required dosages (g a.i./kg seed), corresponding to the seed amounts. The safener amounts were mixed with a coloured slurry blind formulation type, prediluted with milk at 3.5% fat rate (25 mgs slurry formulation plus 2 ml milk per 10 grams of seed). A tube roller was used for coating. The solutions were gradually pipetted each on the rotating seeds followed by coating for min. 3 hours until all liquid had been soaked up by the seeds. Thereafter, the coated seeds were put flat on open trays for drying over night at room temperature.
(§5) Treated seeds were then placed into pots (7 cm diameter) on the surface of sandy loam, pressed down, flat covered with additional soil and finally covered with sandy soil, also pressed down, watered, and kept under good growth conditions in a greenhouse, until the plants had reached 2-leaf-stage (BBCH 12).
(§6) At that stage, post-emergence application of the specified herbicides was done on:
(§7) a) pot sets containing plants with safener-coated seeds as described above,
(§8) b) as a reference, pot sets of plants without seed treatment.
(§9) The herbicides were formulated as wettable powder (WP). Equivalent to the spray area, compound amounts were weighed out and diluted related to the water application rate (300 l/ha) to an aqueous suspension plus additive (1 l/ha MERO). Dosage related equivalents were conventionally sprayed on trays with the potted plants.
(§10) After application, the test plants were kept under good growth conditions in a greenhouse.
(§11) Assessment timings were 10 and 21 days after treatment (DAT) with the herbicide, by visual scoring of the crop damage in % (comparison of untreated with treated plants, either sprayed only with herbicide or with herbicide on plants with treated seeds).

[4] = tested on: spring barley, HORVS Montoya; test: as above; details: 21 DAT; for HER effect + SAF / Reduction [%] / Reduction [Difference]: mefenpyr-diethyl 0.5 g a.i./kg seed
Excerpt: as §3, §4, §5, §6, §7, §8, §9, §10, §11

[5] = HER 1.5 g a.i./ha + mefenpyr-diethyl 50 g a.i./ha, 21 DAT
[6] = HER 6 g a.i./ha + mefenpyr-diethyl 50 g a.i./ha, 21 DAT
[7] = HER 24 g a.i./ha + mefenpyr-diethyl 100 g a.i./ha, 21 DAT
[8] = herbicide alone 1.5 g a.i./ha, 21 DAT
[9] = herbicide alone 24 g a.i./ha, 21 DAT
[10] = HER 24 g a.i./ha post-emergence
[11] = HER 2 g a.i./ha + mefenpyr-diethyl 50 g a.i./ha, 21 DAT
[12] = HER 0.5 g a.i./ha post-emergence
[13] = HER 8 g a.i./ha + mefenpyr-diethyl 50 g a.i./ha, 10 DAT
[14] = herbicide alone 8 g a.i./ha, 10 DAT
[15] = HER 2 g a.i./ha + mefenpyr-diethyl 50 g a.i./ha, 10 DAT
[16] = HER 8 g a.i./ha + mefenpyr-diethyl 100 g a.i./ha, 10 DAT

SMILES: C=CC1(C(=O)NC2C=C(C(=O)OCC#N)OC2)CC(c2cc(F)cc(F)c2)=NO1 (centres unmarked) [Example 1.91]
- HER effect + SAF [1, 5]: 0%
- Reduction [%] [1, 5]: 100%
- Reduction [Difference] [1, 5]: 70
- HER effect + SAF [1, 6]: 20%
- Reduction [%] [1, 6]: 78%
- Reduction [Difference] [1, 6]: 70
- HER effect + SAF [1, 7]: 50%
- Reduction [%] [1, 7]: 38%
- Reduction [Difference] [1, 7]: 30
- HER effect [1, 8]: 70%
- HER effect ([1]; herbicide alone 6 g a.i./ha, 21 DAT): 90%
- HER effect [1, 9]: 80%
- HER effect + SAF [2, 7]: 10%
- Reduction [%] [2, 7]: 67%
- Reduction [Difference] [2, 7]: 20
- HER effect [2, 9]: 30%
- HER effect + SAF [%] (crop damage) ([3]; 21 DAT, HER dose 1.5 g a.i./ha): 10%
- Reduction [%] ([3]; 21 DAT, HER dose 1.5 g a.i./ha): 86%
- Reduction [Difference] ([3]; 21 DAT, HER dose 1.5 g a.i./ha): 60
- HER effect [%] (crop damage, herbicide without safener) ([3]; 21 DAT, HER dose 1.5 g a.i./ha): 70%
- HER effect + SAF [%] (crop damage) ([3]; 21 DAT, HER dose 6 g a.i./ha): 20%
- Reduction [%] ([3]; 21 DAT, HER dose 6 g a.i./ha): 78%
- Reduction [Difference] ([3]; 21 DAT, HER dose 6 g a.i./ha): 70
- HER effect [%] (crop damage, herbicide without safener) ([3]; 21 DAT, HER dose 6 g a.i./ha): 90%
- HER effect + SAF [%] (crop damage) ([3]; 21 DAT, HER dose 24 g a.i./ha): 10%
- Reduction [%] ([3]; 21 DAT, HER dose 24 g a.i./ha): 88%
- Reduction [Difference] ([3]; 21 DAT, HER dose 24 g a.i./ha): 70
- HER effect [%] (crop damage, herbicide without safener) ([3]; 21 DAT, HER dose 24 g a.i./ha): 80%
- HER effect + SAF [4, 10]: 10%
- Reduction [%] [4, 10]: 67%
- Reduction [Difference] [4, 10]: 20
- HER effect ([4]; herbicide alone 24 g a.i./ha post-emergence): 30%

SMILES: CC(C)OC(=O)C1CC(NC(=O)C2(C(C)(F)F)CC(c3cc(F)cc(F)c3)=NO2)CO1 (mixture of isomers) [Example 1.88]
- HER effect + SAF [1, 11]: 30%
- Reduction [%] [1, 11]: 57%
- Reduction [Difference] [1, 11]: 40
- HER effect ([1]; herbicide alone 2 g a.i./ha, 21 DAT): 70%
- HER effect + SAF [2, 5]: 10%
- Reduction [%] [2, 5]: 75%
- Reduction [Difference] [2, 5]: 30
- HER effect [2, 8]: 40%
- HER effect + SAF [%] (crop damage) ([3]; 21 DAT, HER dose 2 g a.i./ha): 10%
- Reduction [%] ([3]; 21 DAT, HER dose 2 g a.i./ha): 86%
- Reduction [Difference] ([3]; 21 DAT, HER dose 2 g a.i./ha): 60
- HER effect [%] (crop damage, herbicide without safener) ([3]; 21 DAT, HER dose 2 g a.i./ha): 70%
- HER effect + SAF [%] (crop damage) ([3]; 21 DAT, HER dose 8 g a.i./ha): 20%
- Reduction [%] ([3]; 21 DAT, HER dose 8 g a.i./ha): 76%
- Reduction [Difference] ([3]; 21 DAT, HER dose 8 g a.i./ha): 65
- HER effect [%] (crop damage, herbicide without safener) ([3]; 21 DAT, HER dose 8 g a.i./ha): 85%
- HER effect + SAF [4, 12]: 0%
- Reduction [%] [4, 12]: 100%
- Reduction [Difference] [4, 12]: 20
- HER effect + SAF ([4]; HER 2 g a.i./ha post-emergence): 10%
- Reduction [%] ([4]; HER 2 g a.i./ha post-emergence): 80%
- Reduction [Difference] ([4]; HER 2 g a.i./ha post-emergence): 40
- HER effect + SAF ([4]; HER 8 g a.i./ha post-emergence): 20%
- Reduction [%] ([4]; HER 8 g a.i./ha post-emergence): 76%
- Reduction [Difference] ([4]; HER 8 g a.i./ha post-emergence): 65
- HER effect ([4]; herbicide alone 0.5 g a.i./ha post-emergence): 20%
- HER effect ([4]; herbicide alone 2 g a.i./ha post-emergence): 50%
- HER effect ([4]; herbicide alone 8 g a.i./ha post-emergence): 85%

SMILES: COCCOC(=O)C1C=CC(NC(=O)C2(C(F)(F)F)CC(c3cc(F)cc(C#N)c3)=NO2)C1 (centres unmarked) [Example 1.2]
- HER effect + SAF [1, 13]: 50%
- Reduction [%] [1, 13]: 44%
- Reduction [Difference] [1, 13]: 40
- HER effect [1, 14]: 90%
- HER effect + SAF [2, 15]: 0%
- Reduction [%] [2, 15]: 100%
- Reduction [Difference] [2, 15]: 20
- HER effect + SAF [2, 16]: 0%
- Reduction [%] [2, 16]: 100%
- Reduction [Difference] [2, 16]: 30
- HER effect ([2]; herbicide alone 2 g a.i./ha, 10 DAT): 20%
- HER effect [2, 14]: 30%
- HER effect + SAF [%] (crop damage) ([3]; 10 DAT, HER dose 8 g a.i./ha): 10%
- Reduction [%] ([3]; 10 DAT, HER dose 8 g a.i./ha): 89%
- Reduction [Difference] ([3]; 10 DAT, HER dose 8 g a.i./ha): 80
- HER effect [%] (crop damage, herbicide without safener) ([3]; 10 DAT, HER dose 8 g a.i./ha): 90%
- HER effect + SAF [%] (crop damage) ([3]; 10 DAT, HER dose 32 g a.i./ha): 30%
- Reduction [%] ([3]; 10 DAT, HER dose 32 g a.i./ha): 67%
- Reduction [Difference] ([3]; 10 DAT, HER dose 32 g a.i./ha): 60
- HER effect [%] (crop damage, herbicide without safener) ([3]; 10 DAT, HER dose 32 g a.i./ha): 90%
